According to patent US20260250318A1, “COMPOSITIONS AND METHODS FOR CROSSING THE BLOOD BRAIN BARRIER” (VOYAGER THERAPEUTICS, INC., priority 2022, published 2026):

How the values were obtained:
[1] = tested on: brain; test: Maturation of TTM-001 capsid, NGS enrichment in brain of CD-1 Outbred mice; assay type: in vivo; settings: NGS fold-enrichment of TTM-001 matured AAV capsid variants in the brain of CD-1 Outbred mice; intravenous 1.0×10^12 VG/dose; 14 days in life; RNA; relative to non-matured TTM-001 control
Summary of the method: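 Brain enrichment read by NGS after RNA extraction and RT-PCR, expressed as fold ratio over the matching parental capsid (TTM-001 or TTM-002). Libraries, mutated around loop IV positions 449/450–466, were injected intravenously (tail vein, 1.0×10^12 VG/dose) into three female CD-1 mice; brains harvested at 14 days.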

[2] = tested on: brains, heart, liver, muscle, and DRG of the NHPs; test: Maturation of TTM-001 and TTM-002 capsids, NGS enrichment in NHP tissues; assay type: in vivo; settings: NGS, relative to AAV9 control
Summary of the method: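 Variants carry mutations within and flanking the loop IV peptide insert: positions 450–466 were triplet-randomized, while positions 449–466 received low-frequency point mutations. The combined pool went into two NHPs, and each peptide was scored by NGS enrichment ratio against AAV9.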

Sequence | Fold enrichment over TTM-001 [1] | further results
KTINGVVSPHRKAQNQQT | 3.106 fold | 
KTINGWRSPHSKAQNQQT | 2.160 fold | 
KTINGYLSPHRKAQNQQT | 2.762 fold | 
KTINGYRSPHSKAQNQQT | 2.140 fold | 
KTINGYSSPHRKAQNQQT | 2.007 fold | 
KTINLIRSPHSKAQNQQT | 2.920 fold | 
KTINLIWSPHSKAQNQQT | 2.035 fold | 
KTINLRFSPHSKAQNQQT | 2.611 fold | 
KTINLSRSPHSKAQNQQT | 2.246 fold | 
KTINMLRSPHSKAQNQQT | 2.000 fold | 
KTINMRVSPHSKAQNQQT | 3.073 fold | 
KTINMSRSPHSKAQNQQT | 2.622 fold | 
KTINRHSSPHSKAQNQQT | 2.877 fold | 
KTINRRLSPHSKAQNQQT | 2.678 fold | 
KTINRVISPHSKAQNQQT | 2.169 fold | 
KTINSARSPHSKAQNQQT | 2.292 fold | 
KTINSPRSPHSKAQNQQT | 2.264 fold | Fold Enrichment relative to AAV9, DRG (NHP) ([2]; NHP DRG): 0.000 fold; Fold Enrichment relative to AAV9, Brain (NHP) ([2]; NHP brain): 0.000 fold; Fold Enrichment relative to AAV9, Heart (NHP) ([2]; NHP heart): 0.000 fold; Fold Enrichment relative to AAV9, Liver DNA (NHP) ([2]; NHP liver DNA): 1.554 fold; Fold Enrichment relative to AAV9, Liver RNA (NHP) ([2]; NHP liver RNA, TTM-001 and TTM-002 matured AAV capsid variants): 27.240 fold; Fold Enrichment relative to AAV9, Muscle (NHP) ([2]; NHP muscle): 0.000 fold

Sequence | Fold enrichment over TTM-001 [1] | further results
KTINSRFSPHSKAQNQQT | 2.032 fold | 
KTINTIESPHSKAQNQQT | 2.331 fold | 
KTINTRPSPHSKAQNQQT | 2.011 fold | 
KTINTSRSPHSKAQNQQT | 2.520 fold | 
KTIRLRGSPHSKAQNQQT | 2.408 fold | 
KTIRSKGSPHSKAQNQQT | 2.559 fold | 
KTLRRSGSPHSKAQNQQT | 2.117 fold | 
KTRKSSGSPHSKAQNQQT | 2.065 fold | 
KTRRSSGSPHSKAQNQQT | 2.438 fold | 
KTRSRSGSPHSKAQNQQT | 3.669 fold | 
KTSRCSGSPHSKAQNQQT | 2.345 fold | 
KTTHCSGSPHSKAQNQQT | 2.672 fold | 
KTWVRSGSPHSKAQNQQT | 2.186 fold | 
KWSPGSGSPHSKAQNQQT (peptide inserted in AAV capsid) | 2.764 fold | 
KYLLGSGSPHSKAQNQQT (peptide inserted in AAV capsid) | 2.253 fold | 
KYLSGSGSPHSKAQNQQT (peptide inserted in AAV capsid) | 4.264 fold | 
KYSVGSGSPHSKAQNQQT (peptide inserted in AAV capsid) | 3.365 fold | 
